Reference: patent publication US20150125432A1, “Human Persistent Fetal Vasculature Neural Progenitors for Transplantation in the Inner Retina” (The Schepens Eye Research Institute, Inc., priority 2012, published 2015)

Key:
NPPFV cells = test: Ca2+ imaging (Fura-2) of NPPFV cells after stimulation with neurotransmitters; format: cell-based, human; conditions: for percentage of responding NPPFV cells: neurotransmitter 0.1 mM, mean±SEM; for elicited [Ca2+]i of responding NPPFV cells: undifferentiated and differentiated NPPFV cells, result in words
Method: Cells were incubated at 37° C. for 30 min in X-vivo medium (containing 3% FBS, 5 μM Fura-2 tetra-acetoxymethyl ester, 8 μM pluronic acid F127 and 250 μM sulfinpyrazone). Cells were washed in modified Mg^2+-free Hank's balanced salt solution (HBSS, 2.6 mM CaCl2, 15 mM HEPES [pH 7.4] and 250 μM sulfinpyrazone). Five types of neurotransmitters, γ-aminobutyric acid (GABA), glutamate (Glu), glycine (Gly), dopamine (Dopa) and acetylcholine (Ach) were dissolved in modified HBSS at a concentration of 0.1 mM. The largest dynamic range for Ca^2+-dependent fluorescence signals is obtained by excitation at 340 nm and 380 nm, and detecting their ratio of emission fluorescence intensities at around 510 nm. From this ratio, the concentration of intracellular Ca^2+ ([Ca^2+]i) can be estimated, using dissociation constants that are derived from calibration curves. By using the ratio of fluorescence intensities produced by excitation at two wave lengths, factors such as uneven dye distribution and photo bleaching are minimized ([…] Ratio Imaging System, Cincinnati, Ohio). The change of [Ca^2+]i was calculated from the difference between the peak Ca^2+ concentration evoked by each agonist and the control value of HBSS (before the addition of agonist). At least 80 cells were selected for analyzing the change of [Ca^2+]i evoked by each agonist, averaged over three repetitions.

[1] = biological target: IGF-1 receptor on B6 mouse retinal ganglion cells (mouse) (UniProt Q60751); test: cell-based or functional assay
[2] = test system: retina of adult C57BL/6 mice; test: Inner retinal (intravitreal) transplantation into adult C57BL/6 mice; format: in vivo, mouse; conditions: intraperitoneal RA 2 mg/kg·day, 3 weeks; result in words
Excerpt: For studying their potential for inner retinal transplantation, NPPFV cells or hRPCs were intravitreally injected to 20 and 10 C57BL/6 mice, respectively. Animals were maintained in standard animal facility. To trace the transplanted cells, NPPFV cells and hRPCs were infected with an AAV2 or retrovirus vector harboring EGFP (HGTI, Boston, Mass.) following the instructions of each transfection kit, respectively. Mice (4-6 weeks of age) were deeply anesthetized with an intraperitoneal injection of ketamine (120 mg/kg) and xylazine (20 mg/kg) and pupils were dilated with 0.5% topical tropicamide. Dissociated GFP-positive cells (1×10^5 cells/2 μl) were suspended in HBSS […] of the eye through a glass micropipette connected to a 10 μl Hamilton syringe via polyethylene tubing. Sham-injected mice received HBSS without cells. All experimental animals received injection in one eye and the other eye was used as an untreated control. […] Anti-GFP antibody (1:100, ABCAM, USA) was used to enhance the fluorescence of prelabled-GFP, while anti-β-III-tubulin (1:500, Sigma, USA), anti-GFAP (1:300, Sigma, USA) and anti-synaptophysin (1:100, DAKO, USA) antibodies helped to assess the differentiation of the transplanted cells. […] Every 10th serial section was counted, measuring […] in thickness as to avoid redundancy of cell counts.

B6 mouse RGCs [3] = test: RGC survival assay (LIVE/DEAD) in co-culture with transfected hNPPFV cells; format: cell-based; conditions: added to hNPPFV^igf-1-tdTomato co-culture; H-1356 40 μg/ml, NBI-31772 10 μM, IGF-1R antibody 1:250; words
Method: (§1) P0 B6 mice were euthanized with CO2 and the retinas were dissected out from the eyecups in cold Hank's buffer (Life Technologies) containing 1× Penicillin-Streptomycin-Glutamine (Life Technologies). Retinas were digested in 20 U/ml papain solution containing 100 U/ml DNaseI at 37° C. for 5-15 min; the reaction was stopped with 5 mg/ml ovomucoid protease inhibitor containing 5 mg/ml albumin. Retinas were gently triturated to obtain a single cell suspension, and cells were washed once and re-suspended in 800 μl washing buffer (0.5% BSA, 2 mM EDTA in 1×PBS). RGCs were isolated using Thy1.2 (CD90.2) microbeads and MACS® magnetic separation system (Miltenyi Biotech) following the manufacturer's instructions. […]
(§2) Co-culture inserts and culture media were removed after 3 days; RGCs were washed with 1×PBS and stained with CalceinAM and EthD-1 (LIVE/DEAD® Viability/Cytotoxicity kit, Life Technologies) for 40 min at room temperature. Images of 4-6 view fields were randomly selected throughout each well under an Olympus inverted fluorescence microscope. Live and dead cells were counted using ImageJ 1.46 (National Institutes of Health, Bethesda, Md.) and survival rates were calculated as live cells/live+dead cells×100%. […] Images were acquired with an Olympus inverted fluorescence microscope. Neurite lengths were measured using ImageJ.

B6 mouse RGCs [4] = test: Neurite outgrowth assay of RGCs in co-culture with transfected hNPPFV cells; format: cell-based; conditions: added to hNPPFV^igf-1-tdTomato co-culture; H-1356 40 μg/ml, NBI-31772 10 μM, IGF-1R antibody 1:250; words
Method: as §1, §2

Sequence of UniProt Q60751 (Q60751 31-1373): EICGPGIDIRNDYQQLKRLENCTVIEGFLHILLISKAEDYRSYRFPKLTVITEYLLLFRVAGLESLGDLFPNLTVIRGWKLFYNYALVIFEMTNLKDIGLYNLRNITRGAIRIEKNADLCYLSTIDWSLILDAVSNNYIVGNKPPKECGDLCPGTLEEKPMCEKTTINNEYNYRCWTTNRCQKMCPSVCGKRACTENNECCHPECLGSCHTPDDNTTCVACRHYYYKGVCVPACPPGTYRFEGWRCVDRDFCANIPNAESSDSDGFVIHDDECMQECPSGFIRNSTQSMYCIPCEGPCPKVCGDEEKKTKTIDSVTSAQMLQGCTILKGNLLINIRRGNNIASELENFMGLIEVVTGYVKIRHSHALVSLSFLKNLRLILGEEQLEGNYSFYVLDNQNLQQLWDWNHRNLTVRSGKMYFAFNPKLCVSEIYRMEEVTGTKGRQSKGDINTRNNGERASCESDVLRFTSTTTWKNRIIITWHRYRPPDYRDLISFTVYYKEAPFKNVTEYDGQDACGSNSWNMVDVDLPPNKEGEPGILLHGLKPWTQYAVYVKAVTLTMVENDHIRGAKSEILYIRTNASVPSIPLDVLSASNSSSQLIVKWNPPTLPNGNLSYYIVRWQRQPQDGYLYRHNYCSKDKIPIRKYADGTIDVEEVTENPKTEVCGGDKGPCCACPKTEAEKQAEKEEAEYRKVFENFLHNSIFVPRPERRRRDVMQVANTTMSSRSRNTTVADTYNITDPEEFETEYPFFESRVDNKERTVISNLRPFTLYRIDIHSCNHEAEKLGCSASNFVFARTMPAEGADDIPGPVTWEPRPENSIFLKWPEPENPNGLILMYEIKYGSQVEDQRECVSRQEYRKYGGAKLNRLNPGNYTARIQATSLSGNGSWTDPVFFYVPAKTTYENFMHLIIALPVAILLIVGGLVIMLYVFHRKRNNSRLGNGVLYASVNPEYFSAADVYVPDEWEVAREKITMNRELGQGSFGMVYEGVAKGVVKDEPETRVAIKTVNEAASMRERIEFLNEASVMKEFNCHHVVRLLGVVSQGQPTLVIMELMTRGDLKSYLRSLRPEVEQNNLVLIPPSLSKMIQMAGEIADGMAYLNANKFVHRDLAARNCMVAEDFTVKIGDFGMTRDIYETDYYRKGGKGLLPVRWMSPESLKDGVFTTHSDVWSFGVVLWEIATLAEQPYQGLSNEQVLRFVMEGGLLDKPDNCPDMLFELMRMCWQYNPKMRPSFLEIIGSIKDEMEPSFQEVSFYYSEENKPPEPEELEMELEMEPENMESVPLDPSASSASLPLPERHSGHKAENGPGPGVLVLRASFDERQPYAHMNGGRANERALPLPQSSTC

Row | Compound | percentage of responding NPPFV cells (NPPFV cells; differentiated NPPFV cells) [%] | percentage of responding NPPFV cells (NPPFV cells; undifferentiated NPPFV cells) [%] | elicited [Ca2+]i of responding NPPFV cells (NPPFV cells) | other results
1 | N[C@@H](CCC(=O)O)C(=O)O [Glu, glutamate] | 87.88±4.97 | 48.98±11.67 | significant increase | –
2 | IGF-1-tdTomato fusion protein (from UniProt P05017 49-118) (ligand) | – | – | – | average neurite length of RGCs co-cultured with hNPPFV^igf-1-tdTomato cells [1]: 93 µm; neurites per RGC co-cultured with hNPPFV^igf-1-tdTomato cells (neurites/cell) [1]: 2; survival rate of RGCs co-cultured with hNPPFV^igf-1-tdTomato cells [1]: 22%
3 | CC(=O)OCC[N+](C)(C)C [Ach, acetylcholine] | 8.23±5.41 | 10.96±8.12 | – | –
4 | NCCc1ccc(O)c(O)c1 [Dopa, dopamine] | 7.89±9.18 | 6.41±7.14 | quite low | –
5 | CC1=C(/C=C/C(C)=C/C=C/C(C)=C/C(=O)O)C(C)(C)CCC1 [RA, all-trans-retinoic acid] | – | – | – | differentiation of engrafted NPPFV cells into retinal ganglion-like neurons [2]: significantly increases the differentiation of engrafts into retinal ganglion-like mature neurons
6 | NCC(=O)O [Gly, glycine] | 21.05±9.72 | 16.67±10.62 | quite low | –
7 | NCCCC(=O)O [GABA, γ-aminobutyric acid] | 12.99±4.86 | 14.94±11.73 | quite low | –
8 | O=C(O)c1cc2cc(O)c(O)cc2c(C(=O)c2ccc(O)c(O)c2)n1 [NBI-31772] | – | – | – | effect on IGF-1-tdTomato-mediated RGC survival (B6 mouse RGCs [3]): completely eliminated the effects; effect on IGF-1-tdTomato-mediated neurite outgrowth (B6 mouse RGCs [4]): completely eliminated the effects
